Assay results from patent publication US9815878B2, “Use of PEDF-derived polypeptides for preventing and/or ameliorating skin aging” (MacKay Memorial Hospital, priority 2012, dated 2017).

Legend:
dermal collagen = assay: Dermal collagen content, Masson's trichrome stained collagen area in depilated mouse skin; format: in vivo, C57BL/6 mice; conditions: for Collagen Area (fold): ointment plus microneedle (MN), twice a week for two weeks, day 14, normalized with Vehicle/MN; for collagen level (Masson's trichrome sections) versus vehicle/CT: ointment without microneedle treatment (CT)
Description: General histology was performed using hematoxylin and eosin (H&E) dye. Deparaffinized skin tissue sections were stained using Masson's Trichrome (Sigma-Aldrich, St. Louis, Mo.) according to the manufacturer's instructions; sections was examined and photographed by a Nikon Eclipse 80i light microscope (original magnification, ×400). For semi-quantitative analysis of collagen area, 10 fields from each slide were randomly selected under the light microscope, and the blue-stained area per entire area of the cross section (mm^2/mm^2) was measured using the Image-Pro Plus 4.5.1 system (Media Cybernetics).
Collagen is the major matrix component of the dermis and forms a tough fiber framework to provide the elastic property of the skin. This working example investigated whether the present PEDF peptides increase dermal collage content. Mice depilated as described in Example 1 were randomly assigned to several experimental groups and treated as follows. For each mouse, one side of the dorsal midline (about 2 cm^2) received 50 μl of ointment (the 29-mer, 20-mer, or DMSO-containing ointment) and a subsequent microneedle treatment; while the other side of the dorsal midline (about 2 cm^2) received 50 μl of the same ointment without the microneedle treatment. The treatment was given twice a week for two weeks, and the skin was left uncovered and harvested 14 days after the first treatment. Skin specimens were stained with Masson's trichrome stain (blue) for dermal collagen; representative images are provided in FIG. 2. The stained collagen area in the skin was quantified as taught above in the “Materials and Methods” section, and the results were normalized with the area of Vehicle/MN. The level of type I collagen (COL1A1) was investigated by the above-described immunoblot analysis, and the results were normalized with the level of the vehicle/CT group.

dermal fibroblasts = assay: Dermal fibroblast proliferation in vivo, BrdU/vimentin staining of skin sections; set-up: species or system mice; conditions: normal skin, 16 hours after peptide/MN treatment
Description: For animal study, BrdU was reconstituted in DMSO as stock (80 mM). 10 μl of BrdU stock mixed with 90 μl of PBS was intraperitoneally injected into mouse at 16 hours prior to euthanasia. Formalin-fixed, paraffin-embedded skin specimens were deparaffinized in xylene and rehydrated in a graded series of ethanol. The specimens were then exposed to 1 N HCl at room temperature for 1 hour for subsequent immunofluorescence study.
BrdU-labeled DNA was detected by polyclonal anti-BrdU antibody and rhodamine-conjugated donkey anti-rabbit IgG. Nuclei were counterstained with Hoechst 33258 (blue).
To investigate whether the transdermal delivery of the present PEDF peptides promotes the proliferation of dermal fibroblast in vivo, mice were intraperitoneally injected with BrdU and euthanized at 16 hours after the PEDF peptide/MN treatment or the vehicle/MN treatment. Skin sections were stained for vimentin (green) and BrdU (red). The level of BrdU- and vimentin-double positive cells was expressed as the percentage of BrdU- and vimentin-double positive cells per total vimentin-positive cells (the BrdU/Vimentin Labeling Index), and the results are summarized in Table 4.

UVB-induced wrinkles = UVB-induced wrinkles in nude mice, appearance photographed; format: in vivo; conditions: 8-week UVB, then ointment plus microneedle twice a week for 2 weeks; FIG. 4
Source text: Six-week-old female nude mice (BALB/cAnN.Cg-Foxn1nu/CrlNarl) were irradiated with ultraviolet B (UVB) on the back 5 times a week for an eight-week period using a bank of five UVB lamps (model XL-1000B, Spectrolinker™ apparatus; emission peak: 312 nm), placed about 20 cm above the backs of the animals. During the UVB exposure, the mice were allowed to move freely within the cage. The irradiation intensity represented as the minimal erythe al dose (MED) was set at 1 MED during the first 2 weeks (60 mJ/cm^2), and was progressively elevated to 2 MED (120 mJ/cm^2) in the 3rd-4th week, to 3 MED (180 mJ/cm^2) in the 5th-6th week, and to 4 MED (240 mJ/cm^2) during the 7th-8th weeks of the experiment. After the 8-week UVB exposure, animals developed noticeable wrinkles and were subsequently randomly divided into the following 4 groups, with 3 mice in each group. In the UVB/vehicle, UVB/29-mer, UVB/20-mer, and UVB/18-mer groups, 350 μl of ointment (containing DMSO, 29-mer, 20-mer or 18-mer PEDF) was applied to the dorsal skin and then transdermal delivery was achieved by punching the ointment treated skin with the microneedle patch. Also, mice that were not subjected to UVB radiation were used as control (Normal). The ointment/microneedle treatment was given twice a week for 2 weeks. Mice were intraperitoneally given BrdU and euthanized at 16 hours after the last treatment. Skin sections were stained for vimentin and BrdU. The level of BrdU- and vimentin-double positive cells was expressed as the percentage of BrdU- and vimentin-double positive cells per total vimentin-positive cells (the BrdU/Vimentin Labeling Index).
Formation of wrinkles is closely related to repetitive exposure to UVB irradiation. […] In this working example, we investigated the anti-wrinkle effect of present PEDF peptides in nude (i.e, hairless) mice. Wrinkles were induced by an eight-week UVB irradiation according to the procedure set forth in Example 3.3 above. […]

type I collagen (COL1A1) = assay: COL1A1 level in UVB-damaged mouse skin by immunoblot; format: in vivo, nude mice; conditions: 8-week UVB, then ointment plus microneedle for 2 weeks; untreated normal group set to 100%
Description: Skin tissues were homogenized in ice-cold lysis buffer containing 20 mM HEPES (pH 7.4), 150 mM NaCl, 1% SDS, 1 mM ethylenediamine tetraacetic acid (EDTA), 5 mM phenylmethanesulfonyl fluoride (PMSF), and 1 mM dithiothreitol (DTT), 1% Triton X-100, with freshly added protease inhibitor cocktail (Roche, Indianapolis, Ind.). Homogenates were then centrifuged at 12,000 g for 30 minutes at 4° C., and supernatants were then collected and stored at −70° C. Protein contents in lysates were determined using the Bradford assay. Whole cell lysates were prepared using the above lysis buffer. Aliquots of the lysates were then resolved on a SDS-PAGE and then electrotransferred to polyvinylidene difluoride (PVDF) membranes (Millipore, Bedford, Mass., USA) and processed for immunoblot analysis.
Antibodies used in the immunoblot study included anti-type I collagen 1A1 antibody (1:1000 dilution), anti-MMP-1 antibody (1:500 dilution) and anti-β-actin antibody (1:10000 dilution). Proteins of interest were detected using the appropriate IgG-HRP secondary antibody and ECL reagent (Amersham, Arlington Heights, Ill., USA). X-ray films were scanned on a Model GS-700 Imaging Densitometer (Bio-Rad Laboratories, Hercules, Calif.) and analyzed using Labworks 4.0 software. For quantification, blots from at least three independent experiments were used.
Six-week-old female nude mice (BALB/cAnN.Cg-Foxn1nu/CrlNarl) were irradiated with ultraviolet B (UVB) on the back 5 times a week for an eight-week period using a bank of five UVB lamps (model XL-1000B, Spectrolinker™ apparatus; emission peak: 312 nm), placed about 20 cm above the backs of the animals. During the UVB exposure, the mice were allowed to move freely within the cage. […] The level of BrdU- and vimentin-double positive cells was expressed as the percentage of BrdU- and vimentin-double positive cells per total vimentin-positive cells (the BrdU/Vimentin Labeling Index). […]

Row | Substance | Collagen Area (fold) (dermal collagen) | collagen level (Masson's trichrome sections) versus vehicle/CT (dermal collagen) | BrdU/Vimentin Labeling Index (%) (dermal fibroblasts) | wrinkle appearance after 2-week treatment (UVB-induced wrinkles) | COL1A1 Level (%) (type I collagen (COL1A1))
1 | Ac-SLGAEQRTESIIHRALYYDLISSPDIHGT-NH2 [29-mer] | 1.7 ± 0.14 fold | no significant difference | 16.9 ± 1.9 % | wrinkle lines were fewer and finer | 91.0 ± 5.0 %
2 | EQRTESIIHRALYYDLIS [18-mer] |  |  |  | not capable of reducing the wrinkles | 45.0 ± 3.8%
3 | SLGAEQRTESIIHRALYYDL [20-mer, synthetic peptide corresponding to residues 93-112 of human PEDF] | 1.6 ± 0.11 fold | no significant difference | 17.3 ± 3.2 % | wrinkle lines were fewer and finer | 92.3 ± 9.1 %
